From patent US20230399312A1, “SUBSTITUTED PYRIMIDINES AND METHODS OF USE” (THERAVANCE BIOPHARMA R&D IP, LLC, priority 2020, published 2023)

How the values were obtained:
[1] = molecular target: T1, recombinant human ALK5 (TGF-βR1) protein (Homo sapiens, UniProt P36897); assay: Biochemical ALK5 (TGF-βR1) assay to measure pKi (LANCE Ultra ULight kinase assay); details: apparent pKi, converted from pIC50 by Cheng-Prusoff
T1 construct: purchased Life Technologies PR9075A
T1 sequence (P36897 34-503): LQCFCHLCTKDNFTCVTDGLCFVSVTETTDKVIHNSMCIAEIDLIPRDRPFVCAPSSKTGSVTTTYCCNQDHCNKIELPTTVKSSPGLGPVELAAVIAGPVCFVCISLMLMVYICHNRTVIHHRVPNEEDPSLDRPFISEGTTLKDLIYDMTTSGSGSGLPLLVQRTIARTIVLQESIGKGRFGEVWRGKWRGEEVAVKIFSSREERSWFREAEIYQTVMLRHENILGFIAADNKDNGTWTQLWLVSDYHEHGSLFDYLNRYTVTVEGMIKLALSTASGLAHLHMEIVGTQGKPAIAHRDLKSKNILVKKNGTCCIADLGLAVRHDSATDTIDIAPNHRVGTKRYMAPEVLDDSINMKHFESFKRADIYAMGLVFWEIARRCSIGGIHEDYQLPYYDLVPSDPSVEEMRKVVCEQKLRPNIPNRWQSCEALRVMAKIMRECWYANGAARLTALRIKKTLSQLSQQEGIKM
How it was run: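 Read-out was LANCE Ultra TR-FRET with a europium anti-phospho-Topo IIα Thr1342 antibody after EDTA quench. Kinase reaction ran 60 min at 37 °C with ATP added from a 125 μM 5× stock, after 60 min compound–enzyme equilibration at room temperature. Values are pKi from Cheng-Prusoff conversion of fitted pIC50.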

[2] = test system: TGF-β-stimulated SMAD3 phosphorylation in BEAS-2B cells; assay: Cellular ALK5 potency assay, inhibition of TGF-β stimulated pSMAD3 formation in BEAS-2B cells; assay type: cell-based; details: Homo sapiens, pSMAD3, TGF-β 10 ng/mL, read-out: BEAS2B pIC50 (converted)
How it was run: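 Human lung epithelial BEAS-2B cells were pre-treated with compound for 1 h at 37 °C, then stimulated with TGF-β (final 10 ng/mL) for 30 min before lysis. pSMAD3 was quantified by AlphaLISA and pIC50 derived from dose-dependent signal change versus TGF-β-stimulated untreated cells.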

Ki [1] | Compound | IC50 [2]
0.0398 to 0.316 nM | CC[C@H](C)OC(=O)CC1CNCCN1c1ccc(Nc2nccc(Nc3ccnc(-c4cccc(C)n4)n3)n2)cc1 (stereo partly drawn) [Compound 449, [(1S)-1-methylpropyl] 2-[1-[4-[[4-[[2-(6-methyl-2-pyridyl)pyrimidin-4-yl]amino]pyrimidin-2-yl]amino]phenyl]piperazin-2-yl]acetate] | 25.1 to 158 nM
3.98 to 31.6 nM | Cc1cccc(-c2nccc(Nc3ccnc(Nc4ccc(-c5cn(Cc6ccccc6)nn5)cc4)n3)n2)n1 [Compound 333, N2-[4-(1-benzyltriazol-4-yl)phenyl]-N4-[2-(6-methyl-2-pyridyl)pyrimidin-4-yl]pyrimidine-2,4-diamine] | 25.1 to 158 nM
0.0398 to 0.316 nM | Cc1cccc(-c2nccc(Nc3ccnc(Nc4ccc(N5CCC(NCc6ccccc6)CC5)cc4)n3)n2)n1 [Compound 450, N2-[4-[4-(benzylamino)-1-piperidyl]phenyl]-N4-[2-(6-methyl-2-pyridyl)pyrimidin-4-yl]pyrimidine-2,4-diamine] | 200 to 1260 nM
0.0398 to 0.316 nM | Cc1cccc(-c2nccc(Nc3ccnc(Nc4ccc(CN5CCCC(C(=O)NC6CCNC6)C5)cc4)n3)n2)n1 (racemic) [Compound 456, 1-[[4-[[4-[[2-(6-methyl-2-pyridyl)pyrimidin-4-yl]amino]pyrimidin-2-yl]amino]phenyl]methyl]-N-[rac-(3R)-pyrrolidin-3-yl]piperidine-3-carboxamide] | 25.1 to 158 nM
0.0398 to 0.316 nM | Cc1cccc(-c2nccc(Nc3ccnc(Nc4ccc(C(=O)OC[C@@H]5CCCNC5)nc4)n3)n2)n1 [Compound 625, [(3R)-3-piperidyl]methyl 5-[[4-[[2-(6-methyl-2-pyridyl)pyrimidin-4-yl]amino]pyrimidin-2-yl]amino]pyridine-2-carboxylate] | 25.1 to 158 nM
0.0398 to 0.316 nM | Cc1cccc(-c2nccc(Nc3ccnc(Nc4ccc(F)c(CN5C[C@@H](C)N[C@@H](C)C5)c4)n3)n2)n1 [Compound 130, N2-[4-fluoro-3-[[rac-(3R,5S)-3,5-dimethylpiperazin-1-yl]methyl]phenyl]-N4-[2-(6-methyl-2-pyridyl)pyrimidin-4-yl]pyrimidine-2,4-diamine] | 25.1 to 158 nM
0.0398 to 0.316 nM | CNCCN1CCN(c2ccc(Nc3nccc(Nc4ccnc(-c5cccc(C)n5)n4)n3)cc2)CC1 [Compound 483, N2-[4-[4-[2-(methylamino)ethyl]piperazin-1-yl]phenyl]-N4-[2-(6-methyl-2-pyridyl)pyrimidin-4-yl]pyrimidine-2,4-diamine] | 200 to 1260 nM
0.398 to 3.16 nM | Cc1cccc(-c2nccc(Nc3ccnc(Nc4cc(N)c5c(c4)OCCO5)n3)n2)n1 [Compound 191, N2-(5-amino-2,3-dihydro-1,4-benzodioxin-7-yl)-N4-[2-(6-methyl-2-pyridyl)pyrimidin-4-yl]pyrimidine-2,4-diamine] | 25.1 to 158 nM
0.0398 to 0.316 nM | Cc1cccc(-c2nc(Nc3ccnc(Nc4ccc(NC(=O)C5CNC5)cc4)n3)c3cccn3n2)n1 [Compound 1026, N-[4-[[4-[[2-(6-methyl-2-pyridyl)pyrrolo[2,1-f][1,2,4]triazin-4-yl]amino]pyrimidin-2-yl]amino]phenyl]azetidine-3-carboxamide] | 25.1 to 158 nM
3.98 to 31.6 nM | Cc1cccc(-c2nccc(Nc3ccnc(Nc4cc(C(=O)O[C@@H]5CCNC5)ccn4)n3)n2)n1 [Compound 601, [(3R)-pyrrolidin-3-yl] 2-[[4-[[2-(6-methyl-2-pyridyl)pyrimidin-4-yl]amino]pyrimidin-2-yl]amino]pyridine-4-carboxylate] | 200 to 1260 nM
0.0398 to 0.316 nM | Cc1cccc(-c2nccc(Nc3ccnc(Nc4ccc(CN5CCC[C@H](C(=O)OCC6CN(C)C6)C5)cc4)n3)n2)n1 [Compound 73, (1-methylazetidin-3-yl)methyl (3S)-1-[[4-[[4-[[2-(6-methyl-2-pyridyl)pyrimidin-4-yl]amino]pyrimidin-2-yl]amino]phenyl]methyl] piperidine-3-carboxylate] | 25.1 to 158 nM
≤ 0.0316 nM | Cc1cccc(-c2nccc(Nc3ccnc(Nc4csc(C(=O)NC5CNC5)c4)n3)n2)n1 [Compound 327, N-(azetidin-3-yl)-4-[[4-[[2-(6-methyl-2-pyridyl)pyrimidin-4-yl]amino]pyrimidin-2-yl]amino]thiophene-2-carboxamide] | 25.1 to 158 nM
0.0398 to 0.316 nM | Cc1cccc(-c2nccc(Nc3ccnc(Nc4ccc(CN5[C@@H](C)CNC[C@@H]5C)cc4)n3)n2)n1 [Compound 409, N2-[4-[[(2S,6S)-2,6-dimethylpiperazin-1-yl]methyl]phenyl]-N4-[2-(6-methyl-2-pyridyl)pyrimidin-4-yl]pyrimidine-2,4-diamine] | 25.1 to 158 nM
0.0398 to 0.316 nM | Cc1cccc(-c2nccc(Nc3ccnc(Nc4ccc(C)c(CO)c4)n3)n2)n1 [Compound 61, [2-methyl-5-[[4-[[2-(6-methyl-2-pyridyl)pyrimidin-4-yl]amino]pyrimidin-2-yl]amino]phenyl]methanol] | 25.1 to 158 nM
0.0398 to 0.316 nM | CN(C)C1CCN(c2ccc(Nc3nccc(Nc4ccnc(-c5cc(Cl)ccc5F)n4)n3)cc2)CC1 [Compound 415, N4-[2-(5-chloro-2-fluoro-phenyl)pyrimidin-4-yl]-N2-[4-[4-(dimethylamino)-1-piperidyl]phenyl]pyrimidine-2,4-diamine] | 25.1 to 158 nM
0.398 to 3.16 nM | Cc1cccc(-c2nccc(Nc3ccnc(Nc4cncc(C(=O)OC[C@@H]5CCCNC5)c4)n3)n2)n1 [Compound 595] | 25.1 to 158 nM
0.0398 to 0.316 nM | Cc1cccc(-c2nc(Nc3ccnc(Nc4ccc(NCC5CNC5)cc4)n3)c3cccn3n2)n1 [Compound 1016, N2-[4-(azetidin-3-ylmethylamino)phenyl]-N4-[2-(6-methyl-2-pyridyl)pyrrolo[2,1-f][1,2,4]triazin-4-yl]pyrimidine-2,4-diamine] | 25.1 to 158 nM
0.0398 to 0.316 nM | Cc1cccc(-c2nccc(Nc3ccnc(Nc4ccc(NC(=O)C5CCNCC5)c(C)c4)n3)n2)n1 [Compound 265, N-[2-methyl-4-[[4-[[2-(6-methyl-2-pyridyl)pyrimidin-4-yl]amino]pyrimidin-2-yl]amino]phenyl]piperidine-4-carboxamide] | ≤ 20 nM
0.0398 to 0.316 nM | Cc1cccc(-c2nccc(Nc3ccnc(Nc4ccc(C(=O)N5CCNCC5)cc4)n3)n2)n1 [Compound 290, [4-[[4-[[2-(6-methyl-2-pyridyl)pyrimidin-4-yl]amino]pyrimidin-2-yl]amino]phenyl]-piperazin-1-yl-methanone] | 25.1 to 158 nM
0.0398 to 0.316 nM | Cc1cccc(-c2nccc(Nc3ccnc(Nc4cccc(N(C)C(=O)C5CCNCC5)c4)n3)n2)n1 [Compound 497, N-methyl-N-[3-[[4-[[2-(6-methyl-2-pyridyl)pyrimidin-4-yl]amino]pyrimidin-2-yl]amino]phenyl]piperidine-4-carboxamide] | 200 to 1260 nM
0.398 to 3.16 nM | Fc1ccc(Cl)cc1-c1nccc(Nc2ccnc(Nc3ccc(NCCN4CCOCC4)cc3)n2)n1 [Compound 408, N4-[2-(5-chloro-2-fluoro-phenyl)pyrimidin-4-yl]-N2-[4-(2-morpholinoethylamino)phenyl] pyrimidine-2,4-diamine] | 25.1 to 158 nM
0.0398 to 0.316 nM | Cc1cccc(-c2nccc(Nc3ccnc(Nc4ccc(N5CCNCC5)c(C)c4)n3)n2)n1 [Compound 515, N2-(3-methyl-4-piperazin-1-yl-phenyl)-N4-[2-(6-methyl-2-pyridyl)pyrimidin-4-yl]pyrimidine-2,4-diamine] | 25.1 to 158 nM
0.0398 to 0.316 nM | COC(=O)CC1CNCCN1c1ccc(Nc2nccc(Nc3ccnc(-c4cccc(C)n4)n3)n2)cc1 (stereo not shown) [Compound 462, methyl 2-[1-[4-[[4-[[2-(6-methyl-2-pyridyl)pyrimidin-4-yl]amino]pyrimidin-2-yl]amino]phenyl]piperazin-2-yl]acetate] | 25.1 to 158 nM
0.0398 to 0.316 nM | Cc1cccc(-c2nccc(Nc3ccnc(Nc4ccc(N5CCC(CNCc6ccccn6)CC5)cc4)n3)n2)n1 [Compound 219, N4-[2-(6-methyl-2-pyridyl)pyrimidin-4-yl]-N2-[4-[4-[(2-pyridylmethylamino)methyl]-1-piperidyl]phenyl]pyrimidine-2,4-diamine] | 25.1 to 158 nM
≤ 0.0316 nM | Cc1cccc(-c2nccc(Nc3ccnc(Nc4ccc5c(c4)CNCC5)n3)n2)n1 [Compound 175, N4-(2-(6-methylpyridin-2-yl)pyrimidin-4-yl)-N2-(1,2,3,4-tetrahydroisoquinolin-7-yl)pyrimidine-2,4-diamine] | 25.1 to 158 nM

Compound | Ki [1] | IC50 [2]
Cc1cccc(-c2nccc(Nc3ccnc(Nc4ccc(CN5[C@H]6CCNC[C@@H]5CC6)cc4)n3)n2)n1 (racemic) [Compound 360, N4-[2-(6-methyl-2-pyridyl)pyrimidin-4-yl]-N2-[4-[[rac-(1S,6R)-3,9-diazabicyclo[4.2.1]nonan-9-yl]methyl]phenyl]pyrimidine-2,4-diamine] | 0.0398 to 0.316 nM | 25.1 to 158 nM
